In brackets after ≈: the same amount, converted by molar mass. Non-standard residues stand in square brackets, D forms with d. Residues, ends and D or L forms follow the SMILES beside them. Tic = O=C(O)[C@@H]1Cc2ccccc2CN1; Aoc = NCCCCCCCC(=O)O
Key:
Scedosporium spp. = conditions: 72 h
Fusarium spp. = conditions: 48 h
C. glabrata = conditions: 24 h
C. krusei = conditions: 24 h
C. parapsilosis = conditions: 24 h
C. auris = conditions: 24 h
C. neoformans = conditions: 72 h
C. dubliniensis = conditions: 24 h
C. tropicalis = conditions: 24 h
C. albicans = conditions: 24 h
C. gattii = conditions: 72 h
in vitro = conditions: human, EC50 cytotoxicity in HepG2, intracellular ATP assay

| MIC C. glabrata (C. glabrata) | MIC C. krusei (C. krusei) | MIC C. parapsilosis (C. parapsilosis) | MIC C. auris (C. auris) | MIC C. dubliniensis (C. dubliniensis) | MIC C. tropicalis (C. tropicalis) | MIC C. albicans (C. albicans) | Activity at 24 h MIC50 against Candida spp. (Candida spp.) | Activity at 24 h MIC90 against Candida spp. (Candida spp.) | Activity at 48 h MIC50 against Candida spp. (Candida spp.) | Activity at 48 h MIC90 against Candida spp. (Candida spp.) | SMILES | MIC Range Scedosporium spp. (Scedosporium spp.) | MIC Range Fusarium spp. (Fusarium spp.) | MIC Range Lomentospora prolificans (Lomentospora prolificans) | MIC C. neoformans (C. neoformans) | MIC C. gattii (C. gattii) | EC50 (in vitro) |
| --- | --- | --- | --- | --- | --- | --- | --- | --- | --- | --- | --- | --- | --- | --- | --- | --- | --- |
| 0.25 µg/mL (≈ 0.1 µM) | 0.5 µg/mL (≈ 0.2 µM) | 0.25 µg/mL (≈ 0.1 µM) | 0.5 µg/mL (≈ 0.2 µM) | 0.25 µg/mL (≈ 0.1 µM) | 0.25 µg/mL (≈ 0.1 µM) | 0.25 µg/mL (≈ 0.1 µM) | – | – | – | – | N=C(N)NCCC[C@@H](N)C(=O)N[C@@H](CCCNC(=N)N)C(=O)N[C@H](CCCNC(=N)N)C(=O)N[C@@H](CCCNC(=N)N)C(=O)N1CCC[C@H]1C(=O)N[C@H](CCCNC(=N)N)C(=O)N[C@@H](CCCNC(=N)N)C(=O)N[C@H](CCCNC(=N)N)C(=O)N[C@@H](CCCNC(=N)N)C(=O)N1CCC[C@H]1C(=O)N[C@H](CCCNC(=N)N)C(=O)N[C@@H](CCCNC(=N)N)C(=O)N[C@H](CCCNC(=N)N)C(=O)N1CCC[C@H]1C(=O)N[C@H](CCCNC(=N)N)C(=O)N[C@@H](CCCNC(=N)N)C(=O)N[C@H](CCCNC(=N)N)C(N)=O [SEQ ID NO: 60, rRrR-P-rRrR-P-rRr-P-rRr-NH2] (H-[dR]R[dR]RP[dR]R[dR]RP[dR]R[dR]P[dR]R[dR]-NH2) | – | – | – | – | – | > 300 µg/mL |
| 0.5 µg/mL (≈ 0.217 µM) | 0.5 µg/mL (≈ 0.217 µM) | 0.25 µg/mL (≈ 0.109 µM) | 2 µg/mL (≈ 0.869 µM) | 0.25 µg/mL (≈ 0.109 µM) | 0.25 µg/mL (≈ 0.109 µM) | 0.25 µg/mL (≈ 0.109 µM) | 0.5 µg/mL | 4 µg/mL | 0.5 µg/mL | 32 µg/mL | N=C(N)NCCC[C@@H](N)C(=O)N[C@@H](CCCNC(=N)N)C(=O)N[C@H](CCCNC(=N)N)C(=O)N[C@@H](CCCNC(=N)N)C(=O)N[C@H](CCCNC(=N)N)C(=O)N[C@@H](CCCNC(=N)N)C(=O)N[C@H](CCCNC(=N)N)C(=O)N1CCC[C@H]1C(=O)N[C@H](CCCNC(=N)N)C(=O)N[C@@H](CCCNC(=N)N)C(=O)N[C@H](CCCNC(=N)N)C(=O)N[C@@H](CCCNC(=N)N)C(=O)N[C@H](CCCNC(=N)N)C(=O)N[C@@H](CCCNC(=N)N)C(=O)N[C@H](CCCNC(=N)N)C(N)=O [SEQ ID NO: 62, rRrRrRr-P-rRrRrRr-NH2] (H-[dR]R[dR]R[dR]R[dR]P[dR]R[dR]R[dR]R[dR]-NH2) | – | – | – | – | – | > 300 µg/mL |
| 0.5 µg/mL (≈ 0.189 µM) | 0.5 µg/mL (≈ 0.189 µM) | 0.5 µg/mL (≈ 0.189 µM) | 0.5 µg/mL (≈ 0.189 µM) | 0.5 µg/mL (≈ 0.189 µM) | 0.5 µg/mL (≈ 0.189 µM) | 0.5 µg/mL (≈ 0.189 µM) | 0.5 µg/mL | 1 µg/mL | 1 µg/mL | 2 µg/mL | N=C(N)NCCC[C@H](NC(=O)[C@@H](CCCNC(=N)N)NC(=O)[C@H](CCCNC(=N)N)NC(=O)[C@@H](CCCNC(=N)N)NC(=O)[C@@H]1CCCN1C(=O)[C@H](CCCNC(=N)N)NC(=O)[C@@H](CCCNC(=N)N)NC(=O)[C@H](CCCNC(=N)N)NC(=O)[C@@H](CCCNC(=N)N)NC(=O)[C@@H]1CCCN1C(=O)[C@@H](CCCNC(=N)N)NC(=O)[C@H](CCCNC(=N)N)NC(=O)[C@@H](CCCNC(=N)N)NC(=O)[C@@H]1CCCN1C(=O)[C@@H](CCCNC(=N)N)NC(=O)[C@H](CCCNC(=N)N)NC(=O)[C@@H](CCCNC(=N)N)NC(=O)[C@@H](N)CCCNC(=N)N)C(N)=O [SEQ ID NO: 63, RrRr-P-rRr-P-rRrR-P-rRrR-NH2] (H-R[dR]R[dR]P[dR]R[dR]P[dR]R[dR]RP[dR]R[dR]R-NH2) | – | – | – | – | – | > 300 µg/mL |
| 0.5 µg/mL (≈ 0.178 µM) | 0.5 µg/mL (≈ 0.178 µM) | 0.5 µg/mL (≈ 0.178 µM) | 0.5 µg/mL (≈ 0.178 µM) | 0.5 µg/mL (≈ 0.178 µM) | 0.5 µg/mL (≈ 0.178 µM) | 0.5 µg/mL (≈ 0.178 µM) | 0.5 µg/mL | 1 µg/mL | 0.5 µg/mL | 2 µg/mL | N=C(N)NCCC[C@H](NC(=O)[C@@H](CCCNC(=N)N)NC(=O)[C@H](CCCNC(=N)N)NC(=O)[C@@H](CCCNC(=N)N)NC(=O)[C@@H]1CCCN1C(=O)[C@H](CCCNC(=N)N)NC(=O)[C@@H](CCCNC(=N)N)NC(=O)[C@H](CCCNC(=N)N)NC(=O)[C@@H](CCCNC(=N)N)NC(=O)[C@@H]1CCCN1C(=O)[C@H](CCCNC(=N)N)NC(=O)[C@@H](CCCNC(=N)N)NC(=O)[C@H](CCCNC(=N)N)NC(=O)[C@@H](CCCNC(=N)N)NC(=O)[C@@H]1CCCN1C(=O)[C@@H](CCCNC(=N)N)NC(=O)[C@H](CCCNC(=N)N)NC(=O)[C@@H](CCCNC(=N)N)NC(=O)[C@@H](N)CCCNC(=N)N)C(N)=O [SEQ ID NO: 64, RrRr-P-rRrR-P-rRrR-P-rRrR-NH2] (H-R[dR]R[dR]P[dR]R[dR]RP[dR]R[dR]RP[dR]R[dR]R-NH2) | – | – | – | – | – | > 300 µg/mL |
| 0.5 µg/mL (≈ 0.214 µM) | 0.5 µg/mL (≈ 0.214 µM) | 0.25 µg/mL (≈ 0.107 µM) | 0.5 µg/mL (≈ 0.214 µM) | 0.5 µg/mL (≈ 0.214 µM) | 0.5 µg/mL (≈ 0.214 µM) | 0.25 µg/mL (≈ 0.107 µM) | 0.5 µg/mL | 2 µg/mL | 0.5 µg/mL | 32 µg/mL | N=C(N)NCCC[C@H](NC(=O)[C@@H](CCCNC(=N)N)NC(=O)[C@@H](N)CCCNC(=N)N)C(=O)N[C@H](CCCNC(=N)N)C(=O)N1CCC[C@H]1C(=O)N[C@H](CCCNC(=N)N)C(=O)N[C@@H](CCCNC(=N)N)C(=O)N[C@H](CCCNC(=N)N)C(=O)N1CCC[C@H]1C(=O)N[C@@H](CCCNC(=N)N)C(=O)N[C@H](CCCNC(=N)N)C(=O)N[C@@H](CCCNC(=N)N)C(=O)N1CCC[C@H]1C(=O)N[C@H](CCCNC(=N)N)C(=O)N[C@@H](CCCNC(=N)N)C(=O)N[C@H](CCCNC(=N)N)C(N)=O [SEQ ID NO: 65, RrRr-P-rRr-P-RrR-P-rRr-NH2] (H-R[dR]R[dR]P[dR]R[dR]PR[dR]RP[dR]R[dR]-NH2) | – | – | – | – | – | > 300 µg/mL |
| 0.5 µg/mL (≈ 0.186 µM) | 1 µg/mL (≈ 0.373 µM) | 0.5 µg/mL (≈ 0.186 µM) | 0.5 µg/mL (≈ 0.186 µM) | 0.5 µg/mL (≈ 0.186 µM) | 0.5 µg/mL (≈ 0.186 µM) | 0.5 µg/mL (≈ 0.186 µM) | – | – | – | – | N=C(N)NCCC[C@@H](N)C(=O)N[C@@H](CCCNC(=N)N)C(=O)N[C@H](CCCNC(=N)N)C(=O)N1Cc2ccccc2C[C@H]1C(=O)N[C@H](CCCNC(=N)N)C(=O)N[C@@H](CCCNC(=N)N)C(=O)N[C@H](CCCNC(=N)N)C(=O)N1Cc2ccccc2C[C@H]1C(=O)N[C@H](CCCNC(=N)N)C(=O)N[C@@H](CCCNC(=N)N)C(=O)N[C@H](CCCNC(=N)N)C(=O)N[C@@H](CCCNC(=N)N)C(=O)N1Cc2ccccc2C[C@H]1C(=O)N[C@H](CCCNC(=N)N)C(=O)N[C@@H](CCCNC(=N)N)C(=O)N[C@H](CCCNC(=N)N)C(=O)N[C@@H](CCCNC(=N)N)C(N)=O [SEQ ID NO: 76, rRr-(Tic)-rRr-(Tic)-rRrR-(Tic)-rRrR-NH2] (H-[dR]R[dR][Tic][dR]R[dR][Tic][dR]R[dR]R[Tic][dR]R[dR]R-NH2) | – | – | – | – | – | 139 µg/mL (≈ 51.7 µM) |

| SMILES | MIC C. glabrata (C. glabrata) | MIC C. krusei (C. krusei) | MIC C. parapsilosis (C. parapsilosis) | MIC C. auris (C. auris) | MIC C. dubliniensis (C. dubliniensis) | MIC C. tropicalis (C. tropicalis) | MIC C. albicans (C. albicans) | Activity at 24 h MIC50 against Candida spp. (Candida spp.) | Activity at 24 h MIC90 against Candida spp. (Candida spp.) | Activity at 48 h MIC50 against Candida spp. (Candida spp.) | Activity at 48 h MIC90 against Candida spp. (Candida spp.) | MIC Range Scedosporium spp. (Scedosporium spp.) | MIC Range Fusarium spp. (Fusarium spp.) | MIC Range Lomentospora prolificans (Lomentospora prolificans) | MIC C. neoformans (C. neoformans) | MIC C. gattii (C. gattii) | EC50 (in vitro) |
| --- | --- | --- | --- | --- | --- | --- | --- | --- | --- | --- | --- | --- | --- | --- | --- | --- | --- |
| CC(=O)N[C@H](CCCNC(=N)N)C(=O)N[C@@H](CCCNC(=N)N)C(=O)N[C@H](CCCNC(=N)N)C(=O)NCCCCCCCC(=O)N[C@H](CCCNC(=N)N)C(=O)N[C@@H](CCCNC(=N)N)C(=O)N[C@H](CCCNC(=N)N)C(=O)NCCCCCCCC(=O)N[C@H](CCCNC(=N)N)C(=O)N[C@@H](CCCNC(=N)N)C(=O)N[C@H](CCCNC(=N)N)C(=O)N[C@@H](CCCNC(=N)N)C(=O)NCCCCCCCC(=O)N[C@H](CCCNC(=N)N)C(=O)N[C@@H](CCCNC(=N)N)C(=O)N[C@H](CCCNC(=N)N)C(=O)N[C@@H](CCCNC(=N)N)C(N)=O [SEQ ID NO: 31, CH3CONH-rRr-(Aoa)-rRr-(Aoa)-rRrR-(Aoa)-rRrR-NH2] (Ac-[dR]R[dR][Aoc][dR]R[dR][Aoc][dR]R[dR]R[Aoc][dR]R[dR]R-NH2) | 1 µg/mL (≈ 0.375 µM) | 0.5 µg/mL (≈ 0.187 µM) | 0.25 µg/mL (≈ 0.0937 µM) | 0.5 µg/mL (≈ 0.187 µM) | 1 µg/mL (≈ 0.375 µM) | 0.5 µg/mL (≈ 0.187 µM) | 1 µg/mL (≈ 0.375 µM) | – | – | – | – | 0.5 to 2 µg/mL | 0.25 to 4 µg/mL | 2 µg/mL (≈ 0.749 µM) | 0.5 µg/mL (≈ 0.187 µM) | 0.5 µg/mL (≈ 0.187 µM) | – |
| CC(=O)N[C@H](CCCNC(=N)N)C(=O)N[C@@H](CCCNC(=N)N)C(=O)N[C@H](CCCNC(=N)N)C(=O)N1CCC[C@H]1C(=O)N[C@H](CCCNC(=N)N)C(=O)N[C@@H](CCCNC(=N)N)C(=O)N[C@H](CCCNC(=N)N)C(=O)N1CCC[C@H]1C(=O)N[C@H](CCCNC(=N)N)C(=O)N[C@@H](CCCNC(=N)N)C(=O)N[C@H](CCCNC(=N)N)C(=O)N[C@@H](CCCNC(=N)N)C(=O)N1CCC[C@H]1C(=O)N[C@H](CCCNC(=N)N)C(=O)N[C@@H](CCCNC(=N)N)C(=O)N[C@H](CCCNC(=N)N)C(=O)N[C@@H](CCCNC(=N)N)C(N)=O [SEQ ID NO: 55, CH3CONH-rRr-P-rRr-P-rRrR-P-rRrR-NH2] (Ac-[dR]R[dR]P[dR]R[dR]P[dR]R[dR]RP[dR]R[dR]R-NH2) | 0.5 µg/mL (≈ 0.197 µM) | 2 µg/mL (≈ 0.788 µM) | 0.25 µg/mL (≈ 0.0985 µM) | 1 µg/mL (≈ 0.394 µM) | 0.5 µg/mL (≈ 0.197 µM) | 0.5 µg/mL (≈ 0.197 µM) | 1 µg/mL (≈ 0.394 µM) | – | – | – | – | 0.5 to 1 µg/mL | 0.25 to 1 µg/mL | 1 µg/mL (≈ 0.394 µM) | 0.5 µg/mL (≈ 0.197 µM) | 1 µg/mL (≈ 0.394 µM) | – |
